# Like-named read-outs stand apart in the source and are kept apart here.
# Legend:
# [1] = Stability of C2E2 in plasma (Beagle); format: in vitro ADME, dog; settings: 37° C., up to two hours
# Description: Prior to the study, 975 μL of plasma (Rat, Beagle and Human) was preheated to 37° C. in Eppendorff tubes and the test compound (C2E2) was prepared in DI water (10 mg/mL). The C2E2 was from Lot 050 obtained using Method 2. To initiate the study, 25 μL of the C2E2 solution was added to the pre-heated plasma and briefly vortexed, to mix. At 0, 15, 30, 60 and 120 minutes a 100 μL sample of plasma was taken, an equal volume of cold acetonitrile was added and mixed to precipitate plasma proteins. Samples were centrifuged at 4° C. and 14,000×g for 10 minutes to remove precipitated proteins, the supernatant was collected and the C2E2 concentration determined by HPLC-CAD. All conditions were repeated in triplicate.
# HPLC Detection Methods: C2E2 analysis was performed on a prominence HPLC (Shimadzu Corporation, Kyoto, Japan) equipped with a Corona Ultra charged […] detector (CAD) (Thermo scientific, Sunnyvale, Calif.). […]
# The gradient is 0.01-34.99 min: 22% B; 35.00-44.99 min: 33% B; 45.00-60.00 min: 38% B. The flow rate is 1.0 mL/min, a Thermo Hypersil ODS column (150 mm 4.6 mm i.d. with 5.0 μm particles) will be used, injection volume will be 10 μL and column oven temperature maintained at 25° C. […] The limit of quantification is 0.35 μg/mL. […]
# [2] = Precipitation / solubility study in pH 3.0 buffer; format: physicochemical
# Description: A precipitation study was performed to estimate the concentration at which no precipitation occurs. Initially, 12 samples of C2E2 were prepared at concentrations ranging from 40-150 mg/mL in pH 3.0 buffer in steps of 10 mg/mL. The solutions were left to stir until precipitation occurred.
# Three samples of C2E2 at 60, 70 and 100 mg/mL in pH 3.0 buffer were prepared and stirred at room temperature. At 0.083, […], 1, 2, 4, 6, 20, 24 and 44 hours 0.5 mL samples were withdrawn centrifuged at 14,000×g and the concentration of supernatant measured by HPLC-CAD. At each time-point the pH of the supernatant was also measured.
# [3] = 10-day repeat-dose toxicity and toxicokinetics study in dogs; format: in vivo, Beagle dog; settings: for AUC(0-t) / Cmax: plasma, po, 200 mg/kg/day, after 10 days of dosing; for AUC(0-t): read-out: C2E2 AUC0-24; for Cmax: read-out: Mean C2E2 Cmax
# Description: An exploratory study was conducted to evaluate the toxicity and to determine the toxicokinetics of the test article, C2E2, when administered to dogs via 10 daily oral gavage doses. Groups of 2 Beagle dogs/sex were administered C2E2 via oral gavage at dose levels of 0, 60, 200, 400, or 600 mg/kg. The vehicle was reverse osmosis water and the dose volume was 8 mL/kg. Assessment of toxicity was based on mortality, clinical observations, body weight, food consumption, clinical pathology, gross pathology, organ weights, histopathology of selected tissues, and plasma essential trace elements analysis. Blood samples were collected on Days 1 and 10 for toxicokinetic evaluations of C2E2, C2E1, DTPA and C2E3. C2E3 is believed to be an impurity in the C2E2 lot used.
# [4] = Body weights and clinical observations in the rat single dose decorporation study; format: in vivo, Sprague Dawley rat; settings: for Mean body weight: in g (unit assumed)
# Description: Each rat was weighed at contamination (Day 0) and the terminal body weight (Day 7) was taken at necropsy.
smiles,measurement,setting,value
"CCOC(=O)CN(CCN(CCN(CC(=O)O)CC(=O)OCC)CC(=O)O)CC(=O)O [C2E2, 6,9-bis(carboxymethyl)-3-(2-ethoxy-2-oxoethyl)-11-oxo-12-oxa-3,6,9-triazatetradecan-1-oic acid]",Metabolism in plasma (observation),[1],minimal or not detected
same,Time of sudden precipitation from supersaturated solution,"[2]; 100 mg/ml in pH 3.0 buffer, stirred at room temperature",20 to 24 h
same,solubility,"[2]; Lot 050, solutions at this concentration precipitated over time, read-out: Solubility, initially determined",100 mg/mL
same,solubility,"[2]; aqueous buffer, thermodynamic from solid, pH 3.0 buffer, room temperature, read-out: Solubility at pH 3.0",60 to 70 mg/mL
same,C2E2 concentration above which precipitation was observed,"[2]; pH 3.0 buffer, 24 hours stirring then 48 hours standing at room temperature",above 60 mg/mL
same,C2E2 concentration above which precipitation was observed,"[2]; pH 3.0 buffer, after 24 hours stirring",above 90 mg/mL
same,Dose proportionality of mean Cmax and AUC0-24,[3]; 60 to 600 mg/kg/day,not consistently dose proportional
same,Maximum-tolerated dose (statement),"[3]; 400 and 600 mg/kg/day, early sacrifices",exceeded the maximum-tolerated dose
same,NOAEL at 10 days,"[3]; both sexes, Beagle, dog, in vivo, dogs, oral gavage, 10 days, read-out: No observed adverse effect level (NOAEL)",200 mg/kg/day
same,Accumulation after multiple dosing,"[3]; dogs, 10 daily doses",No accumulation
same,Sex differences in C2E2 mean Cmax and AUC0-24,"[3]; dogs, 60-600 mg/kg/day",less than 2 fold
same,Dose at which liver and kidney were target organs of toxicity,"[3]; dogs, 10 days",≥ 400 mg/kg/day
same,Dose with clinical chemistry changes consistent with hepatotoxicity,"[3]; dogs, 10 days",≥ 400 mg/kg/day
same,"Dose with test article related clinical observations (vomitus/emesis, fecal abnormalities)","[3]; dogs, 10 days",≥ 200 mg/kg/day
same,AUC(0-t),"[3]; female, Beagle, dog, females",184 µg·h/mL
same,Cmax,"[3]; female, Beagle, dog, females",72 µg/mL
same,Dose with dose-dependent body weight loss,[3]; females,≥ 400 mg/kg/day
same,AUC(0-t),"[3]; male, Beagle, dog, males",151 µg·h/mL
same,Cmax,"[3]; male, Beagle, dog, males",59.5 µg/mL
same,Dose with dose-dependent body weight loss,[3]; males,≥ 200 mg/kg/day
same,Dose with hepatocyte degeneration/necrosis and mixed cell inflammation,"[3]; males, terminal sacrifice",≥ 200 mg/kg/day
same,Mortality / early sacrifice,"[3]; one male 600 mg/kg/day, one male 400 mg/kg/day",Two animals were sacrificed early due to moribund condition
same,"Essential trace elements in plasma (Cr, Co, Cu, Fe, Mg, Mn, Mo, Se, Zn)",[3]; repeated doses up to 600 mg/kg/day for 10 days,No test article-related depletion of essential trace elements in plasma
same,Mean Percentage Body Weight Change,"[4]; Female, C2E2 200 mg/kg, Fasted",0.8 ± 2.2%
same,Mean Percentage Body Weight Change,"[4]; Female, C2E2 200 mg/kg, ad libitum",0.0 ± 2.5%
same,Mean Percentage Body Weight Change,"[4]; Female, C2E2 600 mg/kg, Fasted",−2.3 ± 3.3%
same,Mean Percentage Body Weight Change,"[4]; Female, C2E2 600 mg/kg, ad libitum",1.1 ± 1.2%
same,Mean Percentage Body Weight Change,"[4]; Female, C2E2 1000 mg/kg, Fasted",−5.0 ± 2.9%
same,Mean Percentage Body Weight Change,"[4]; Female, C2E2 1000 mg/kg, ad libitum",0.7 ± 2.1%
same,Mean Percentage Body Weight Change,"[4]; Male, C2E2 200 mg/kg, Fasted",8.1 ± 8.4%
same,Mean Percentage Body Weight Change,"[4]; Male, C2E2 200 mg/kg, ad libitum",10.4 ± 11.0%
same,Mean Percentage Body Weight Change,"[4]; Male, C2E2 600 mg/kg, Fasted",12.6 ± 3.1%
same,Mean Percentage Body Weight Change,"[4]; Male, C2E2 600 mg/kg, ad libitum",10.1 ± 3.1%
same,Mean Percentage Body Weight Change,"[4]; Male, C2E2 1000 mg/kg, Fasted",12.0 ± 4.8%
same,Mean Percentage Body Weight Change,"[4]; Male, C2E2 1000 mg/kg, ad libitum",10.6 ± 0.8%
same,Mean body weight,"[4]; female rats, C2E2 200 mg/kg, Fasted, Day 0",245.0 ± 11.6
same,Mean body weight,"[4]; female rats, C2E2 200 mg/kg, Fasted, Day 7 (terminal)",246.8 ± 9.6
same,Mean body weight,"[4]; female rats, C2E2 200 mg/kg, ad libitum, Day 0",276.8 ± 17.3
same,Mean body weight,"[4]; female rats, C2E2 200 mg/kg, ad libitum, Day 7 (terminal)",276.5 ± 15.1
same,Mean body weight,"[4]; female rats, C2E2 600 mg/kg, Fasted, Day 0",280.5 ± 28.0
same,Mean body weight,"[4]; female rats, C2E2 600 mg/kg, Fasted, Day 7 (terminal)",273.5 ± 19.2
same,Mean body weight,"[4]; female rats, C2E2 600 mg/kg, ad libitum, Day 0",247.0 ± 13.8
same,Mean body weight,"[4]; female rats, C2E2 600 mg/kg, ad libitum, Day 7 (terminal)",249.7 ± 14.5
same,Mean body weight,"[4]; female rats, C2E2 1000 mg/kg, Fasted, Day 0",276.3 ± 17.9
same,Mean body weight,"[4]; female rats, C2E2 1000 mg/kg, Fasted, Day 7 (terminal)",262.7 ± 23.8
same,Mean body weight,"[4]; female rats, C2E2 1000 mg/kg, ad libitum, Day 0",232.5 ± 19.3
same,Mean body weight,"[4]; female rats, C2E2 1000 mg/kg, ad libitum, Day 7 (terminal)",234.2 ± 21.4
same,Clinical observations,"[4]; male and female rats, 200, 600, 1000 mg/kg single oral dose, 7 days",No adverse C2E2 exposure-related clinical observations
same,Mean body weight,"[4]; male rats, C2E2 200 mg/kg, Fasted, Day 0",291.3 ± 12.7
same,Mean body weight,"[4]; male rats, C2E2 200 mg/kg, Fasted, Day 7 (terminal)",314.2 ± 14.4
same,Mean body weight,"[4]; male rats, C2E2 200 mg/kg, ad libitum, Day 0",296.3 ± 9.4
same,Mean body weight,"[4]; male rats, C2E2 200 mg/kg, ad libitum, Day 7 (terminal)",326.5 ± 25.7
same,Mean body weight,"[4]; male rats, C2E2 600 mg/kg, Fasted, Day 0",275.9 ± 9.7
same,Mean body weight,"[4]; male rats, C2E2 600 mg/kg, Fasted, Day 7 (terminal)",310.6 ± 9.1
same,Mean body weight,"[4]; male rats, C2E2 600 mg/kg, ad libitum, Day 0",292.8 ± 5.1
same,Mean body weight,"[4]; male rats, C2E2 600 mg/kg, ad libitum, Day 7 (terminal)",322.2 ± 6.4
same,Mean body weight,"[4]; male rats, C2E2 1000 mg/kg, Fasted, Day 0",270.3 ± 5.8
same,Mean body weight,"[4]; male rats, C2E2 1000 mg/kg, Fasted, Day 7 (terminal)",302.8 ± 14.2
same,Mean body weight,"[4]; male rats, C2E2 1000 mg/kg, ad libitum, Day 0",290.5 ± 6.6
same,Mean body weight,"[4]; male rats, C2E2 1000 mg/kg, ad libitum, Day 7 (terminal)",321.2 ± 6.5
